Measurements published in patent publication US9815866B2, “Peptides that bind to epithelial cell adhesion molecule” (JAPANESE FOUNDATION FOR CANCER RESEARCH, priority 2012, dated 2017).
Values belong to the compound of their own block, whether it stands above or below them. Bridge positions count the residues as written; N and C are the ends. Ends that are not written are not given here. Peptide text beside a SMILES is read from it. * marks the point of attachment. Biotin = O=C1N[C@H]2[C@H](CS[C@H]2CCCCC(=O)*)N1

Legend:
[1] = molecular target: T1, EpCAM on HT-29 (Homo sapiens, UniProt P16422); assay: Staining of spheroid-cultured HT-29 cells with FITC-modified peptide; format: cell-based; design: endogenous in cells; host or cells: HT-29; conditions: FITC-labeled peptide, 0.4 μM
T1 sequence (P16422 24-314): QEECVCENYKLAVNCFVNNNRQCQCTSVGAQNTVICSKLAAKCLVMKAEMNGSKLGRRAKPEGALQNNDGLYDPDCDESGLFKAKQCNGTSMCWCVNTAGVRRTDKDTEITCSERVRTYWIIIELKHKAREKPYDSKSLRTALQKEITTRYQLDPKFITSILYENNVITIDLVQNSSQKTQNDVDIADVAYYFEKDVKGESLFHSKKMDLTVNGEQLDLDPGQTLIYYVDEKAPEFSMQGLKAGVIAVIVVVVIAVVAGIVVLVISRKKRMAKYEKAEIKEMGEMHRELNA
Experimental: The HT-29 cells as EpCAM-expressing cells were cultured by spheroid culture method as follows: 4×10^5 cells are suspended in 3 ml of D-MEM/F-12 medium (Dulbecco's Modified n Eagle Medium:Nutrient Mixture 12, 1:1 mixture) (Gibco/Life Technologies Inc.) supplemented with 20 ng/ml human EGF (Miltenyi Biotec K.K.), 20 ng/ml human EGF-2 (Miltenyi Biotec K.K.), B-27 (Gibco/Life Technologies Inc.), penicillin, and streptomycin and inoculated to EZ-Sphere®, a Petri dish of 3.5 cm in diameter coated with MPC polymer. After static culture for 72 hours, the cells were collected while the medium was suspended by pipetting. The cells were stained with the FITC-modified peptide and observed under a fluorescence microscope. […]

[2] = molecular target: T2, 293T cells transfected with full-length EpCAM gene (Homo sapiens, UniProt P16422); assay: Staining of 293T cells forced to express EpCAM with FITC-modified peptide; format: cell-based
T2 construct: an expression plasmid in which the full-length EpCAM gene incorporated; expressed in transfected cells; host or cells: 293T
T2 sequence (P16422 24-314): T1 sequence (P16422 24-314)
Text: 293T cells expressing no endogenous EpCAM were transfected with pkk196, an expression plasmid in which the full-length EpCAM gene incorporated, and forced to express EpCAM, followed by staining using FITC-modified Ep114.

[3] = molecular target: T3, EpCAM (Homo sapiens, UniProt P16422); assay: Binding activity against EpCAM after oxidation treatment (S—S bond formation, HPLC fractionation)
T3 sequence (P16422 24-314): T1 sequence (P16422 24-314)

[4] = molecular target: T4, EpCAM (Homo sapiens, UniProt P16422); assay: ELISA with immobilized biotinylated peptide and purified EpCAM; format: binding; conditions: purified EpCAM 0, 10 or 100 ng
T4 construct: with insertions myc and His tags at the C terminus of the extracellular domain; myc (C); made in house; host or cells: HEK-293T
T4 sequence (P16422 24-265 limits assumed): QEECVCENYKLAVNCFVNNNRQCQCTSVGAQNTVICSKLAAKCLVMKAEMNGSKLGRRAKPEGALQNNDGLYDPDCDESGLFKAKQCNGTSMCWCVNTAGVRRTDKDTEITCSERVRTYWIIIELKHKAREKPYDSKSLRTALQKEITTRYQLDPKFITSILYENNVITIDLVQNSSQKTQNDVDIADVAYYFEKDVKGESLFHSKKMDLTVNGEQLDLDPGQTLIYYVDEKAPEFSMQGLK
Experimental: was immobilized onto an ELISA plate via streptavidin, and purified EpCAM was added thereto in an amount of 0, 10, or 100 ng and reacted. After washing, bound EpCAM was detected using the anti-EpCAM antibody. A biotin-modified peptide PE194 (Ac-[…](biotin)-NH2) (SEQ ID NO: 13) of the L3A variant (non-EpCAM-binding variant) was used as a control.

[5] = molecular target: T4, EpCAM; assay: Dissociation constant of EpCAM-binding peptide and EpCAM by fluorescence depolarization method; conditions: FITC-modified peptide; Kd estimated by curve fitting, Hill equation; N.B.: Not bound
Experimental: The obtained EpCAM peptides were assayed for their strength of binding to EpCAM by the fluorescence depolarization method, which is a method for evaluating the interaction between molecules. Each fluorescently labeled EpCAM peptide and EpCAM are used to determine the strength of binding from the kinetics of depolarization by Brownian movement.
Each FITC-modified EpCAM peptide or control peptide was suspended at a concentration of approximately 100 μM in PBS. After centrifugation, the supernatant was collected and diluted 10-fold, and the absorbance was measured at 495 nm From the measurement value, the molar concentration of the peptide was determined using the formula of Beer-Lambert of the following expression 1: A=E×b×C [Expression 1]
EpCAM is diluted with PBS into several concentrations from 0 until reaching equilibrium (40 nM for the Ep133 peptide), and the FITC-modified peptide whose precise concentration has been measured by the aforementioned method is added to the dilutions thus prepared. The sample was left at a temperature for measurement for 30 minutes or longer and subjected to polarization measurement using a spectrofluorometer FP-6500 (JASCO Corp.) equipped with an automatic polarization measurement unit (JASCO Corp., APH-103). Kd was estimated by curve fitting according to the Hill equation.
The dissociation constants of the two types of peptides Ep133 (FIG. 2(A)) and Ep114 (FIG. 2(C)), which were obtained in the present invention and had the high ability to bind to EpCAM, were measured by the fluorescence depolarization method.
The dissociation constants of the EpCAM-binding peptide Ep301 (FIG. 2(D)) disclosed in Patent Literature 2 and Ep301 control (FIG. 2(E)), which was a control peptide derived from Ep301 by the substitution of cysteine at positions 5 and 10 by serine, and a sequence of EpCAM from residue 106 to 119 (FIG. 2(F)) having partial homology to EpCAM-binding peptides were measured similarly.

[6] = molecular target: T5, EpCAM-expressing cells HT-29 (Homo sapiens, UniProt P16422); assay: Cell staining of HT-29 cells, confocal microscope; format: cell-based; conditions: HT-29, FITC-labeled peptide 0.4 μM, 37° C., 1 hour
T5 construct: EpCAM on HT-29 was stained at a concentration of 0.4 μM; endogenous in cells; host or cells: HT-29
T5 sequence (P16422 24-314): T1 sequence (P16422 24-314)
Experimental: The EpCAM-expressing cells HT-29 or the non-expressing cells Hs578T were cultured in a medium containing 10% fetal calf serum in a Petri dish for 48 hours and then incubated at 37° C. for 1 hour with the FITC-labeled Ep114 peptide or a L3A control labeled peptide at a final concentration of 0.4 μM Immediately thereafter, the cells were observed under a confocal microscope.

[7] = test system: anti-Ep114 antibody; assay: Immunoprecipitation with biotinylated Ep114 on streptavidin beads: binding to anti-Ep114 antibody; design: species or system rabbit; conditions: peptide on streptavidin-magnetic beads, Western blot
Experimental: 250 μg of streptavidin-magnetic beads (Dynabeads® M-280 streptavidin, VERITAS Corp.) in TBS containing 2% BSA was added to 20 μg of the biotinylated Ep114 peptide and shaken at room temperature for 30 minutes, followed by washing with TBS. Beads reacted without the peptide were used as a control. The anti-Ep114 antibody was added to the beads in TBST and reacted at room temperature for 1 hour. After washing with TBS, the beads were collected. The collected beads were heated at 95° C. for 5 minutes in a SDS sample buffer. After Western-blotting, the anti-Ep114 antibody was detected using HRP-labeled anti-rabbit antibodies.
A schematic diagram of the reaction with the magnetic beads is shown in the left panel of FIG. 5A, and the Western blot results are shown on the right panel thereof.

[8] = molecular target: T4, EpCAM; assay: ELISA with ferritin-fused Ep114 peptide; format: binding; conditions: either partner immobilized
Experimental: Ep114 was fused to the N terminus of Fer8 (Non Patent Literature 6), a ferritin derivative, and used in analysis.
1 μg of the ferritin-fused Ep114 peptide (Ep114/fer8) or ferritin (fer8) was immobilized onto an ELISA plate. Then, purified EpCAM was added thereto at different concentrations. Bound EpCAM was detected using the anti-EpCAM antibody (FIG. 8A).
Next, 0.2 μg of purified EpCAM was immobilized onto an ELISA plate. Then, the ferritin-fused Ep114 peptide (Ep114/fer8) or ferritin (fer8) was added thereto at different concentrations. Bound Ep114 peptide (Ep114/fer8) or ferritin (fer8) was detected using an anti-ferritin antibody (FIG. 8B).

staining of EpCAM on HT-29 spheroids [1]: no staining is observed
Compound: 114control-FITC: FITC-labeled Ep114 control peptide in which cysteine at positions 5 and 10 is substituted by serine (KHLQSVRNISWS; also: FITC-labeled, position not given here) [reference compound]

staining of EpCAM on HT-29 spheroids [1]: no staining is observed
Compound: 133control-FITC: FITC-labeled Ep133 control peptide in which cysteine at positions 5 and 10 is substituted by serine (EHLHSLGSLSWP; also: FITC-labeled, position not given here) [reference compound]

staining of cell membrane portions [6]: no staining was observed
Compound: L3A variant: FITC-labeled Ep114 variant peptide with leucine at 3rd residue substituted by alanine, staining control (KHAQCVRNICWS; cysteine pairing not given here; also: FITC-labeled, position not given here) [reference compound]

detection of EpCAM [8]: capable of sensitively detecting EpCAM
Compound: ferritin-fused Ep114 peptide: Ep114 fused to the N terminus of Fer8, a ferritin derivative (KHLQCVRNICWS; not fully specified (C-terminus, bridges); cysteine pairing not given here; also: fused to ferritin Fer8 (recombinant carrier), not in the letters)

The next lines start with the compound.

Compound: 114-FITC: FITC-labeled Ep114 peptide (KHLQCVRNICWS; cysteine pairing not given here; also: FITC-labeled, position not given here) [Peptide 114-FITC]
staining of EpCAM on HT-29 spheroids [1]: stained

Compound: 133-FITC: FITC-labeled Ep133 peptide (EHLHCLGSLCWP; cysteine pairing not given here; also: FITC-labeled, position not given here) [Peptide 133-FITC]
staining of EpCAM on HT-29 spheroids [1]: stained

Compound: CC(C)C[C@@H]1NC(=O)[C@@H](NC(=O)[C@H](Cc2c[nH]cn2)NC(=O)[C@H](CC(C)C)NC(=O)[C@H](Cc2c[nH]cn2)NC(=O)[C@@H](N)CCC(=O)O)CSSC[C@@H](C(=O)N[C@@H](Cc2c[nH]c3ccccc23)C(=O)N2CCC[C@H]2C(=O)O)NC(=O)[C@H](CC(C)C)NC(=O)[C@H](CO)NC(=O)CNC1=O [Ep133, EHLHCLGSLCWP] (H-EHLHCLGSLCWP-OH; disulfide 5-10; N-terminus and C-terminus assumed)
ability to bind to EpCAM without active oxidation treatment ([2]; data not shown): did not show the ability to bind to EpCAM
binding activity against EpCAM [3]: only a fraction of the peptides having the S—S bond showed binding activity against EpCAM

Compound: Ac-KHAQCVRNICWSPPPPPPKK(Biotin)-NH2 (cysteine pairing not given here) [PE194, reference compound]
ELISA signal [4]: increase in signal intensity was rarely observed

Compound: Ac-KHLQCVRNICWSPPPPPPKK(Biotin)-NH2 (cysteine pairing not given here) [PE183]
ELISA signal [4]: enhancement in ELISA signal proportional to the amount of EpCAM added

Compound: EHLHSLGSLSWP [Ep133 control, Ep133 with cysteine at positions 5 and 10 substituted by serine]
Kd (nM) [5]: N.B.

Compound: Ep114Cys: FITC-modified Ep114 peptide that did not undergo oxidation treatment (KHLQCVRNICWS; also: FITC-modified, position not given here, no oxidation treatment, cysteines not deliberately cross-linked)
ability to stain EpCAM ([2]; FITC-modified peptide with or without oxidation treatment): equivalent ability to stain EpCAM

Compound: KAKQCNGTSMCWPK [EpCAM partial sequence]
Kd (nM) [5]: N.B.

Compound: KSLQSINNLSWP [Ep301 control, Ep301 with cysteine at positions 5 and 10 substituted by serine]
Kd (nM) [5]: N.B.

Compound: biotinylated Ep114: Ep114 peptide biotinylated at the stage of its synthesis, without linker (KHLQCVRNICWS; cysteine pairing not given here; also: biotin label, position not given here)
binding to anti-Ep114 antibody [7]: bound with the anti-Ep114 antibody
